LC50 data for two compounds are collected here from ChEMBL document CHEMBL1159247, “Isolation of Novel Beauvericin Analogues from the Fungus Beauveria bassiana” (1995).

The structures appear in SMILES notation. In brackets after ≈: the same amount, converted by molar mass.

In general, LC50 refers to the concentration that kills 50% of the test population.

The experiment has as its system Aedes aegypti. Description: Insecticidal in Aedes aegypti fourth instar mosquito larvae after 24 hrs. In kind it is functional.

The compound `CC(C)[C@@H]1OC(=O)[C@@H](Cc2ccccc2)N(C)C(=O)[C@H](C(C)C)OC(=O)[C@@H](Cc2ccccc2)N(C)C(=O)[C@H](C(C)C)OC(=O)[C@@H](Cc2ccccc2)N(C)C1=O` [BEAUVERICIN] returned an LC50 of 26 µg/mL (≈ 33.2 µM).

Regarding `CC[C@H](C)[C@H]1OC(=O)[C@H](Cc2ccccc2)N(C)C(=O)[C@@H](C(C)C)OC(=O)[C@H](Cc2ccccc2)N(C)C(=O)[C@@H](C(C)C)OC(=O)[C@H](Cc2ccccc2)N(C)C1=O` [BEAUVERICIN A], the LC50 was found to be 31 µg/mL (≈ 38.8 µM). The LC50 values of the last two compounds are within 1.5-fold of each other.
